# Data as given in patent publication US20260102413A1, “TREATING PAIN ASSOCIATED WITH CENTRAL SENSITIZATION” (Medicon Pharmaceuticals, Inc., priority 2022, published 2026).
# Assays:
# [1] = test system: mice with paclitaxel-induced neuropathic pain (CIPN); assay: von Frey paw withdrawal threshold (mechanical allodynia), paclitaxel-induced CIPN / central sensitization, treatment of established pain, topical test compounds; format: in vivo, mouse; conditions: for PWT: naproxen 2.4%, aspirin […], ibuprofen 2.5% topical both hind paws 3x/day 14 days; for Paw-withdrawal threshold, g Mean ± SEM, Day 0: group value after paclitaxel, before study drug
# Description: Paw withdrawn, licking or shaking were considered positive responses.
# (§1) The first doses were administered 5 days after the last administration of paclitaxel (i.e., at day 0).
# The PWT test was performed prior to the administration of paclitaxel (day −8) to establish the threshold in mice without neuropathic pain associated with CIPN (the value shown is an average of the PWT in all groups at day −8).
# Pain associated with CIPN was established in line with the experiments disclosed herein. Mice were treated with naproxen 2.4% (equimolar to PN 5%), aspirin 1.7% (equimolar to PA2 5%); or ibuprofen 2.5% (equimolar to PI 5%) or vehicle applied topically to both hind paws 3×/day for 14 days.
# CIPN was induced in mice with chemotherapeutic agents using established protocols (Carozzi et al, 2010; Currie et al, 2019; Eldridge et al, 2020).
# The first doses were administered 1 day after the last administration of paclitaxel (i.e., at day 0).
# as §1
# The PWT test was performed on day 21, at the end of the experiment, but was also additionally determined on day 14 for LXIX.
# [2] = test system: mice with paclitaxel-induced CIPN; assay: thermal allodynia (paw withdrawal latency, radiant heat), paclitaxel CIPN model; format: in vivo, mouse; conditions: NO-sulindac, HS-sulindac 5% topical 3x/day
# Description: Group 3: paclitaxel pluse sulindac (n=8)
# Thermal allodynia was also determined for the mice study groups below (with 8 mice per group): • 1. Group 1: naïve mice (i.e. no paclitaxel) • 2. Group 2: paclitaxel only • 3. Group 3: paclitaxel plus vehicle • 4. Group 4: paclitaxel plus NO-sulindace • 5. Group 5: paclitaxel plus thiol-sulindac
# [3] = test system: mice with paclitaxel-induced CIPN; assay: von Frey PWT, paclitaxel CIPN model, orally administered compounds; format: in vivo, mouse; conditions: for PWT, g: 100 mg/kg oral gavage 3x/day; for PWT: oral gavage 3x/day 6 days: ibuprofen 40, PI 80, PIA 80, PGI 60 mg/kg, day 6
# Excerpt: CIPN was induced in mice with chemotherapeutic agents using established protocols (Carozzi et al, 2010; Currie et al, 2019; Eldridge et al, 2020). […] This dosing regimen of paclitaxel produces pain associated with CIPN with time courses that are similar to those of pain after paclitaxel administration in cancer patients.
# Group 1: naïve mice (i.e. no paclitaxel, n=8) • 2. Group 2: paclitaxel only (n=8) • 3. Group 3: paclitaxel plus vehicle (n=8) • 4. […] Group 5: paclitaxel pluse sulindac (n=8)
# The PWT test was performed on day 7.
# Phospho-naproxen (PN) and naproxen were given by oral gavage, three times a day for 7 days. Their doses were as follows: PN, 65 mg/kg; naproxen, 35 mg/kg (equimolar to PN). The response of mechanical allodynia to phospho-naproxen (PN) and naproxen was tested on day 7.
# (§2) This dosing regimen of paclitaxel produces pain associated with CIPN with time courses that are similar to those of pain after paclitaxel administration in cancer patients.
# Phospho-ibuprofen (PI) (Formula III), phospho-glycerol-ibuprofen (PGI) (Formula LXXI), phospho-ibuprofen-amide (PIA) (Formula XI), and ibuprofen were given by oral gavage, three times a day for 6 days. Their doses were as follows: ibuprofen, 40 mg/kg; PI, 80 mg/kg; PIA, 80 mg/kg; all three were equimolar.
# The response of mechanical allodynia to these compounds was tested on day 6, using the PWT test.
# as §2
# NO-sulindac (Formula XLIV), HS-sulindac (Formula XXXIV), platinum-sulindac (Formula LXVII), and NOSH-1 (Formula LIX) were given by oral gavage, three times a day throughout the study period. Their doses were all 100 mg/kg.
# The response of mechanical allodynia to these compounds was tested on the days set out in the table below, via the PWT test.
# LXIX was given by oral gavage, once a day for 14 days at a dose of 100 mg/kg.
# The response of mechanical allodynia to these compounds was tested on day 14, via the PWT test.
# [4] = test system: mice with chronic constriction injury (PTPN); assay: von Frey PWT, CCI model of PTPN, orally administered compounds; format: in vivo, mouse; conditions: for PWT, g Mean ± SEM: oral 3x/day 14 days: PI 80, PIA 80, ibuprofen 40 mg/kg, day 14
# Description: Phospho-ibuprofen (PI) (Formula III), phospho-ibuprofen-amide (PIA) (Formula XI), ibuprofen and vehicle control were all administered orally, three times a day for 14 days. Their doses were as follows: PI 80 mg/kg, PIA 80 mg/kg, ibuprofen 40 mg/kg (all three are equimolar). […] Group 1: vehicle (n=5-8) • 2. Group 2: ibuprofen (n=5-8) • 3. Group 3: phospho-ibuprofen (PI) (n=5-8) • 4. Group 4: phospho-ibuprofen-amide (PIA) (n=5-8)
# [5] = test system: mice with chronic constriction injury of the left sciatic nerve (PTPN); assay: von Frey PWT, chronic constriction injury (CCI) model of PTPN, topical compounds; format: in vivo, mouse; conditions: for PWT, g mean ± SEM, Day 14: NOSH-1, LXIX, LXX 5% on left hind paw 3x/day 14 days; for PWT, g Mean ± SEM, Baseline: group value following ligation, prior to treatment
# Description: The PWT test was performed following ligation, but prior to treatment to determine baseline values. The PWT was then further measured on day 14.
# [6] = test system: mice with NTG-induced migraine; assay: von Frey PWT, NTG-induced migraine model, oral or intraperitoneal compounds; format: in vivo, mouse; conditions: oral 30 min after NTG: PS 50, sulindac 33, PN 65, naproxen 35 mg/kg; 30 min after administration
# Description: Phosphonaproxen (Formula VIII), and its parent compound, naproxen, were administered orally to each mouse group. All compounds were administered at equimolar doses. In particular, phosponaproxen was administered at 65 mg/kg, and naproxen was administered at 35 mg/kg, 30 minutes after NTG administration. The response of mechanical allodynia was tested 30 minutes after administration.
# [7] = test system: mice with NTG-induced chronic migraine; assay: von Frey PWT, NTG-induced chronic migraine model; format: in vivo, mouse; conditions: for PWT, g Mean ± SEM, Day 12 (pre-treatment): day 12 after first NTG dose, before compound administration; for PWT, g Mean ± SEM, Baseline: group baseline prior to NTG (Example 17)
# Excerpt: The NTG-induced chronic migraine model was used as described previously.
# STZ-diabetic rats = format: in vivo, rat; conditions: rat, in vivo
# Excerpt: The animal model corresponds to that used for Example 4, but using a prevention protocol. As in Example 4, the outcome measure, determining the effect of the treatment on the prevention of mechanical allodynia, was the PWT test, using von Frey filaments. The measurements were taken at day −3, before treatment or induction of neuropathic pain associated with DPN, and again at the end of the study period (day 28).
# The rats were randomised into treatment groups as follows, all having an average body weight of about 225 g. • 1. Group 1: naïve rats (n=6) • 2. Group 2: STZ only (n=8) • 3. Group 3: STZ plus vehicle (n=8) • 4. […] Group 5: STZ plus sulindac 0.7% (n=8) • 6. Group 6: STZ plus lidocaine cream 5% (n=8)
# Each treatment group was subjected to a PWT assessment at day −3 in order to determine the baseline of mechanical allodynia.
# For those rats in the lidocaine treatment group, lidocaine cream was applied only once to both hind paws of the rats 30 min before the final PWT measurement on day 28. On day 0, neuropathic pain associated with DPN was induced with the administration of STZ, and the blood glucose was checked on day 3.
# [8] = drug levels in proximal and distal half of the sciatic nerve after topical PS; format: in vivo, mouse; conditions: mouse, in vivo
# Description: In a separate experiment we studied 8 mice with paclitaxel-induced PN treated with PS 8% ointment 3×/d for 2 wks. Mice were euthanized as above 30 minutes after the last dose of PS. From these mice we harvested both sciatic nerves dividing each into proximal and distal halves, and combined the corresponding halves of every two animals for assay of drug levels.
molecule,measurement,setting,value
"CC(=O)Oc1ccccc1C(=O)O [Aspirin, aspirin, reference compound]",PWT,[1],0.69 ± 0.10 g
CC1=C(CC(=O)Oc2ccc(-c3cc(=S)ss3)cc2)c2cc(F)ccc2/C1=C\c1ccc([S+](C)[O-])cc1 (stereo not shown) [HS-sulindac],"PWL, sec Mean ± SEM",[2],9.9 ± 0.6 s
same,"PWT, g Mean ± SEM","[1]; paclitaxel 8 mg/kg x4, 5% topical both hind paws 3x/day 17 days",0.99 ± 0.15 g
same,"PWT, g",[3]; D 2,D 2 = 0.90 ± 0.09 g
same,"PWT, g",[3]; D 4,D 4 = 1.10 ± 0.05 g
same,"PWT, g",[3]; D 13,D 13 = 1.23 ± 0.06 g
"CC(C)Cc1ccc(C(C)C(=O)O)cc1 (stereo not shown) [Ibuprofen, ibuprofen, reference compound]",PWT,[1],0.60 ± 0.08 g
same,"PWT, g Mean ± SEM",[4],0.58 ± 0.02 g
same,PWT,[3],0.53 ± 0.05 g
COc1ccc2cc(C(C)C(=O)Oc3ccc(C(N)=S)cc3)ccc2c1 (stereo not shown) [LXIX],"PWT, g mean ± SEM, Day 14",[5],1.35 ± 0.23 g
same,"PWT, g Mean ± SEM, Baseline",[5],0.55 ± 0.09 g
same,"PWT, g Mean ± SEM","[1]; LXIX 5% topical both hind paws 3x/day, Day 14",Day 14 = 0.86 ± 0.10 g
same,"PWT, g Mean ± SEM","[1]; LXIX 5% topical both hind paws 3x/day, Day 21",Day 21 = 1.20 ± 0.14 g
same,"PWT, g Mean ± SEM","[3]; LXIX 100 mg/kg oral gavage once a day 14 days, day 14",0.93 ± 0.14 g
CC(C(=O)Oc1ccc(C(N)=S)cc1)c1cccc(C(=O)c2ccccc2)c1 (stereo not shown) [LXX],"PWT, g mean ± SEM, Day 14",[5],1.28 ± 0.29 g
same,"PWT, g Mean ± SEM, Baseline",[5],0.58 ± 0.07 g
"O=C(CCCO[N+](=O)[O-])Oc1ccccc1C(=O)Oc1ccc(-c2cc(=S)ss2)cc1 [NOSH1, NOSH-aspirin]","PWT, g mean ± SEM, Day 14",[5],2.00 ± 0.00 g
same,"PWT, g Mean ± SEM, Baseline",[5],0.60 ± 0.00 g
same,"PWT, g",[3]; D 2,D 2 = 0.93 ± 0.17 g
same,"PWT, g",[3]; D 4,D 4 = 1.39 ± 0.15 g
same,"PWT, g",[3]; D 13,D 13 = 1.33 ± 0.11 g
"COc1ccc2cc([C@H](C)C(=O)O)ccc2c1 [Naproxen, naproxen, reference compound]",PWT,[1],0.61 ± 0.11 g
same,"PWT, g Mean ± SEM",[6],0.56 ± 0.02 g
same,"PWT, g Mean ± SEM","[3]; paclitaxel 8 mg/kg x4, oral gavage 3x/day 7 days: PS 50, sulindac 33, PN 65, naproxen 35 mg/kg, day 7",0.53 ± 0.05 g
"CCOP(=O)(OCC)OCC(COC(=O)C(C)c1ccc(CC(C)C)cc1)OP(=O)(OCC)OCC (stereo not shown) [PGI, phospho-glycerol-ibuprofen]",PWT,[3],1.60 ± 0.11 g
"CCOP(=O)(OCC)OCC(CNC(=O)C(C)c1ccc(CC(C)C)cc1)OP(=O)(OCC)OCC (stereo not shown) [PGIA, phospho-glycerol-ibuprofen-amide]","PWT, g Mean ± SEM","[1]; mouse, in vivo",1.70 ± 0.25 g
"CCOP(=O)(OCC)OCCCCOC(=O)C(C)c1ccc(CC(C)C)cc1 (stereo not shown) [PI, phospho-ibuprofen]","PWT, g Mean ± SEM","[5]; PI, PN 5% on left hind paw 3x/day 14 days, day 14",1.54 ± 0.19 g
same,"Paw-withdrawal threshold, g Mean ± SEM, Day 0",[1],0.64 ± 0.05 g
same,"Paw-withdrawal threshold, g Mean ± SEM, Day 14","[1]; mouse, in vivo",0.8 ± 0.07 g
same,"PWT, g Mean ± SEM",[4],0.82 ± 0.07 g
same,PWT,[3],1.41 ± 0.23 g
"CCOP(=O)(OCC)OCCCCNC(=O)C(C)c1ccc(CC(C)C)cc1 (stereo not shown) [PIA, phosphoibuprofen-amide]",PWT,"[4]; PIA 80 mg/kg oral 3x/day, day 5",1.43 ± 0.19 g
same,"PWT, g Mean ± SEM",[4],1.74 ± 0.12 g
same,PWT,[3],1.79 ± 0.40 g
"CNS(=O)(=O)Cc1ccc2[nH]cc(CCN(C)C)c2c1 [Sumatriptan, sumatriptan]","PWT, g Mean ± SEM, Day 12 (pre-treatment)",[7],0.57 ± 0.02 g
same,"PWT, g Mean ± SEM, Baseline",[7],1.90 ± 0.06 g
"CC1(C)O[C@@H]2[C@@H](CO[C@@]3(COS(N)(=O)=O)OC(C)(C)O[C@@H]23)O1 [Topiramate, topiramate]","PWT, g Mean ± SEM, Day 12 (pre-treatment)",[7],0.60 ± 0.00 g
same,"PWT, g Mean ± SEM, Baseline",[7],2.40 ± 0.24 g
CCOP(=O)(OCC)OCC(COC(=O)c1ccccc1OC(C)=O)OP(=O)(OCC)OCC (stereo not shown) [glycero-phospho-aspirin II],"Paw-withdrawal threshold, g Mean ± SEM, Day 0",[1],0.66 ± 0.05 g
same,"Paw-withdrawal threshold, g Mean ± SEM, Day 14","[1]; mouse, in vivo",0.69 ± 0.06 g
CCN(CC)CC(=O)Nc1c(C)cccc1C [lidocaine],"von Frey, gm mean ± SEM",STZ-diabetic rats,34.3 ± 1.6 gm
CC1=C(CC(=O)O)c2cc(F)ccc2/C1=C\c1ccc(S(C)(=O)=O)cc1 [sulindac sulfone],Fold difference distal vs proximal,[8],4.5
NO-aspirin,"PWT, g Mean ± SEM","[1]; paclitaxel 8 mg/kg x4, 5% topical both hind paws 3x/day, Day 8",1.47 ± 0.08 g
platinum-sulindac [Pt-sulindac],"PWT, g",[3]; D 2,D 2 = 1.01 ± 0.17 g
same,"PWT, g",[3]; D 4,D 4 = 1.03 ± 0.19 g
same,"PWT, g",[3]; D 13,D 13 = 1.34 ± 0.07 g
